Structures can show the parent of a compound that is named as a salt.
Molecular target: sigma receptors
Test: Inhibition of ^3H-DTG binding to sigma receptors in rat brain in vitro
Conditions: Table I; 2 nM ^3H-DTG, rat brain without cerebellum, 25° C., 20 min

SMILES | IC50
c1ccc2c(c1)COC21CCN(CCCCN2CCC3(CC2)OCc2ccccc23)CC1 [Compound 1a, 1,4-Bis[spiro[isobenzofuran-1(3 H),4'-piperidin]-1'-yl]butane] | 0.64 nM
Fc1ccc(C2=CCN(CCCCN3CC=C(c4ccc(F)cc4)CC3)CC2)cc1 [Compound 6a, 1,4-Bis[4-(4-fluorophenyl)-1,2,3,6-tetrahydropyridin-1-yl]butane] | 0.31 nM
Fc1ccc(C2CCN(CCCCN3CCC(c4ccc(F)cc4)CC3)CC2)cc1 [Compound 1b, 1,4-Bis[4-(4-fluorophenyl)piperidin-1-yl]butane] | 0.41 nM
Cc1ccc2c(c1)COC21CCN(CCCCN2CCC3(CC2)OCc2cc(C)ccc23)CC1 [Compound 1l, 1,4-Bis[5-methyl-spiro[isobenzofuran-1(3 H),4'-piperidin]-1-yl]butane] | 23 nM
Fc1ccc(C2CCN(CCCN3CCC(c4ccc(F)cc4)CC3)CC2)cc1 [Compound 2b, 1,3-Bis[4-(4-fluorophenyl)piperidin-1-yl]propane] | 0.17 nM
c1ccc2c(c1)CCCC21CCN(CCCCN2CCC3(CCCc4ccccc43)CC2)CC1 [Compound 1q, 1,4-Bis[3,4-dihydro-spiro[naphthalene-1(2 H),4'-piperidin]-1'-yl]butane] | 4 nM
c1ccc2c(c1)CCC21CCN(CCCCN2CCC3(CCc4ccccc43)CC2)CC1 [Compound 5a, 1,4-Bis[spiro[indan-1,4'-piperidin]-1'-yl]butane] | 3.1 nM
c1ccc2c(c1)COC21CCN(CCN2CCC3(CC2)OCc2ccccc23)CC1 [Compound 2c, 1,2-Bis[spiro[isobenzofuran-1(3 H),4'-piperidin]-1'-yl]ethane] | 0.23 nM
c1ccc2c(c1)COC21CCN(CCCN2CCC3(CC2)OCc2ccccc23)CC1 [Compound 2a, 1,3-Bis[spiro[isobenzofuran-1(3 H),4'-piperidin]-1'-yl]propane difumarate] | 0.76 nM
FC(F)(F)c1ccc2c(c1)C1(CCN(CCCCN3CCC4(CC3)OCc3ccc(C(F)(F)F)cc34)CC1)OC2 [Compound 1j, 1,4-Bis[6-(trifluoromethyl)-spiro[isobenzofuran-1(3 H),4'-piperidin]-1-yl]butane, dihydrochloride] | 19 nM
Fc1ccc(C(CCN2CCC3(CC2)OCc2ccccc23)CCN2CCC3(CC2)OCc2ccccc23)cc1 [Compound 7b, 1,5-Bis[spiro[isobenzofuran-1(3 H),4'-piperidin]-1'-yl]-3-(4-fluorophenyl)pentane, difumarate] | 0.72 nM
Fc1ccc(C2CCN(CCN(CCN3CCC(c4ccc(F)cc4)CC3)c3ccccc3)CC2)cc1 [Compound 7a, N,N-Bis[2-[4-(4-fluorophenyl)piperidin-1-yl]ethyl]aniline] | 3.6 nM
Cc1ccc2c(c1)COC21CCN(CCCCCCN2CCC3(CC2)OCc2cc(C)ccc23)CC1 [Compound 11a, 1,6-Bis[5-methyl-spiro[isebenzofuran-1(3 H),4'-piperidin]-1-yl]hexane] | 9.7 nM
Fc1ccc2c(c1)C1(CCN(CCCCN3CCC4(CC3)OCc3ccc(F)cc34)CC1)OC2 [Compound 1g, 1,4-Bis[6-fluoro-spiro[isobenzofuran-1(3 H),4'-piperidin]-1'-yl]butane] | 0.44 nM
c1ccc2c(c1)COCC21CCN(CCCCN2CCC3(CC2)COCc2ccccc23)CC1 [Compound 1k, 1,4-Bis[1,3-dihydro-spiro[2-benzopyran-4,4'-piperidin]-1'-yl]butane] | 8.7 nM
Fc1cccc2c1C1(CCN(CCCCN3CCC4(CC3)OCc3cccc(F)c34)CC1)OC2 [Compound 1m, 1,4-Bis[7-fluoro-spiro[isobenzofuran-1(3 H),4'-piperidin]-1'-yl]butane] | 5.1 nM
Fc1ccc(C2=CC3CCC(C2)N3CCCCN2C3C=C(c4ccc(F)cc4)CC2CC3)cc1 [Compound 1o, 1,4-Bis[3-(4-fluorophenyl)-8-azabicyclo[3,2,1]oct-2-en-8-yl]butane] | 74 nM
c1ccc2c(c1)OC1(CCN(CCCCN3CCC4(CC3)Oc3ccccc3O4)CC1)O2 [Compound 1i, 1,4-Bis[spiro[1,3-benzodioxol-2,4'-piperidin]-1'-yl]butane] | 45 nM
O=S(=O)(CCN1CCC2(CC1)OCc1ccccc12)CCN1CCC2(CC1)OCc1ccccc12 [Compound 9a, Bis[2-spiro[isobenzofuran-1(3 H),4'-piperidin]-1'-ylethyl]sulphone] | 1800 nM

SMILES | IC50
c1ccc2c(c1)CCC1(CCN(CCCCN3CCC4(CCc5ccccc5O4)CC3)CC1)O2 [Compound 1r, 1,4-Bis[3,4-dihydro-spiro[1-benzopyran-2,4'-piperidin]-1-yl]butane, difumarate] | 130 nM
c1ccc2c(c1)COC21CCN(CCSCCN2CCC3(CC2)OCc2ccccc23)CC1 [Compound 8a, Bis[2-spiro[isobenzofuran-1(3 H),4'-piperidin]-1-ylethyl]sulphide, difumarate] | 0.78 nM
Fc1ccc(C2CCN(CCCCCN3CCC(c4ccc(F)cc4)CC3)CC2)cc1 [Compound 1d, 1,5-Bis[4-(4-fluorophenyl)piperidin-1-yl]pentane, 2.5 fumarate] | 1.4 nM
c1ccc2c(c1)COC21CCN(CCN(CCN2CCC3(CC2)OCc2ccccc23)C2CCCC2)CC1 [Compound 3a, N,N-Bis[2-spiro[isobenzofuran-1(3 H),4'-piperidin]-1'-ylethyl]-N-cyctopentylamine, trihydrochloride] | 1.5 nM
c1ccc2c(c1)COC21CCN(CCCCCN2CCC3(CC2)OCc2ccccc23)CC1 [Compound 1h, 1,5-Bis[spiro[isobenzofuran-1(3 H),4'-piperidin]-1-yl]pentane tetrafumarate] | 2 nM
Fc1ccc(C2CCN(CCN3CCC(c4ccc(F)cc4)CC3)CC2)cc1 [Compound 2d, 1,2-Bis[4-(4-fluorophenyl)piperidin-1-yl]ethane] | 0.5 nM
C1=CC2(CCN(CCCCN3CCC4(C=Cc5ccccc5O4)CC3)CC2)Oc2ccccc21 [Compound 1p, 1,4-Bis[spiro[1-benzopyran-2,4'-piperidin]-1-yl]butane, difumarate] | 32 nM
c1ccc2c(c1)COC21CCN(CCCCCCN2CCC3(CC2)OCc2ccccc23)CC1 [Compound 1f, 1,6-Bis[spiro[isobenzofuran-1(3 H),4'-piperidin]-1'-yl]hexane] | 0.71 nM
c1ccc2c(c1)COC21CC2CCC(C1)N2CCCCN1C2CCC1CC1(C2)OCc2ccccc21 (stereo not drawn) [Compound 1n, 1,4-Bis[spiro[isobenzofuran-1(3 H),3'-8'-azabicyclo[3',2',1']octan]-8'-yl]butane] | 99 nM
c1ccc2c(c1)OCCC21CCN(CCCCN2CCC3(CCOc4ccccc43)CC2)CC1 [Compound 1u, 1,4-Bis[spiro[1-benzopyran-4,4'-piperidin]-1'-yl]butane] | 0.17 nM
CN(CCN1CCC2(CC1)OCc1ccccc12)CCN1CCC2(CC1)OCc1ccccc12 [Compound 3b, N,N-Bis[2-spiro[isobenzofuran-1(3 H),4'-piperidin]-1'-ylethyl]-N-methylamine, trihydrochloride] | 4.9 nM
OC(CN1CCC(c2ccc(F)cc2)CC1)CN1CCC(c2ccc(F)cc2)CC1 [Compound 12a, 1,3-Bis[4-(4-fluorophenyl)piperidin-1-yl]-2-propanol] | 2.4 nM
c1ccc2c(c1)CSC21CCN(CCCCN2CCC3(CC2)SCc2ccccc23)CC1 [Compound 1s, 1,4-Bis[spiro[isobenzothiophene-1(3 H),4'-piperidin]-1-yl]butane] | 0.04 nM
O=C(CN1CCN(c2ccc(F)cc2)CC1)CN1CCN(c2ccc(F)cc2)CC1 [Compound 13a, 1,3-Bis[4-(4-fluorophenyl)piperazin-1-yl]-2-propanone] | 2500 nM
c1ccc2c(c1)COC1(CCN(CCCCN3CCC4(CC3)Cc3ccccc3CO4)CC1)C2 [Compound 1c, 1,4-Bis[1,4-dihydro-spiro[2-benzopyran-3,4'-piperidin]-1'-yl]butane] | 16 nM
C1=CC2(CCN(CCCCN3CCC4(C=Cc5ccccc54)CC3)CC2)c2ccccc21 [Compound 4a, 1,4-Bis[spiro[ind-2-en-1,4'-piperidin]-1'-yl]butane] | 4 nM
Fc1ccc(N2CCN(CCCCN3CCN(c4ccc(F)cc4)CC3)CC2)cc1 [Compound 1e, 1,4-Bis[4-(4-fluorophenyl)piperazin-1-yl]butane] | 0.89 nM
c1ccc2c(c1)CCOC21CCN(CCCCN2CCC3(CC2)OCCc2ccccc23)CC1 [Compound 1t, 1,4-Bis[spiro[1-benzopyran-2,4'-piperidin]-1-yl]butane, 1.25 fumarate] | 0.38 nM
c1ccc2c(c1)COC21CCN(CCOCCN2CCC3(CC2)OCc2ccccc23)CC1 [Compound 10a, Bis[2-spiro[isobenzofuran-1(3 H),4'-piperidin]-1'-ylethyl]ether,dihydrochloride] | 2.5 nM

Test system: not given
Test: not given
Conditions: clinical; Snyder and Largent 1989; cited from earlier work

SMILES | effects in the treatment of psychosis
C[C@@H]1CN(CCCn2c3ccccc3c3ccccc32)C[C@H](C)N1 [Rimcazole, reference compound] | clinically shows effects in the treatment of psychosis
